Where two headings read alike, the source gives them in different places. Blank lines part the entries; values can stand above or below the compound they belong to.
Assays:
[1] = hypertensives; 5-7 mM (310-434 mg/L/day) nitrate; cited from earlier work

Compound: O=[N+]([O-])[O-].[K+] [KNO3, potassium nitrate]
- salivary nitrite (ingestion): elevated
- Salivary NO2 (subject 1, 500 mg KNO3 (5 mg/Kg) at 8:00, time 1:00PM): 120 µM
- Salivary NO2 (subject 1, 500 mg KNO3 (5 mg/Kg) at 8:00, time 2:00): 110 µM
- Salivary NO2 (subject 1, 500 mg KNO3 (5 mg/Kg) at 8:00, time 2:45): <20 µM
- Salivary NO2 (subject 1, 500 mg KNO3 (5 mg/Kg) at 8:00, time 9:00): 400 µM
- Salivary NO2 (subject 1, 500 mg KNO3 (5 mg/Kg) at 8:00, time 11:00): 220 µM
- Salivary NO2 (subject 1, 500 mg KNO3 (5 mg/Kg) at 8:00, time 11:40): 110 µM
- Salivary NO2 (subject 2, 1,000 mg KNO3 (12 mgNO3/Kg) at 10:00, time 3:00): 220 µM
- Salivary NO2 (subject 2, 1,000 mg KNO3 (12 mgNO3/Kg) at 10:00, time 4:00): 110 µM
- Salivary NO2 (subject 2, 1,000 mg KNO3 (12 mgNO3/Kg) at 10:00, time 5:45): 20 µM
- Salivary NO2 (subject 2, 1,000 mg KNO3 (12 mgNO3/Kg) at 10:00, time 10:30): 200 µM

- nitric oxide bioavailability (salivary nitrite as surrogate marker) (human, in vivo): boosted and extended
Compound: O=C1O[C@H]([C@@H](O)CO)C(O)=C1O [ascorbate]

Compound: O=[N+]([O-])O [nitrate]
- reduction of systolic blood pressure [1]: 4-11 mmHg

From patent US11844811B2, “Methods and compositions for alleviating respiratory dysfunction” (MYFITSTRIP LLC, priority 2018, dated 2023)
